Test results taken from patent US12617779B2, “Self degradation-type CDK9 inhibitor prodrug and liposome encapsulating same” (Sumitomo Pharma Co., Ltd., priority 2021, dated 2026).
Each block holds one compound with its values, some of them ahead of it.

What was measured:
[1] = Stability evaluation of solution formulation (Experimental Example 2); format: physicochemical; details: for Production rate of Alvocidib / Residual rate: solution formulation
Method: For Example 1, Example 2, Example 5, Example 6, Comparative Example 13 and Comparative Example 14, the attrition rate of the test compound and the conversion rate of the test compound to Alvocidib in a solution formulation were calculated by the following method.
Example 1, Example 2, Example 5, Example 6, Comparative Example 13 and Comparative Example 14 were each added to buffer solutions adjusted to pH 3.0, 4.0 and 5.0, respectively, at a concentration of 0.1 mg/mL, and left at 5° C. After 0, 1, 2 and 4 weeks, the residual rates of the compounds of Example 1, Example 2, […], Comparative Example 13 and Comparative Example 14 and the production rate of Alvocidib were determined by HPLC.
The buffer solutions used at each pH are as follows. • pH 3.0: 5 mM tartrate buffer solution/10% sucrose solution (pH 3.0) • pH 4.0: 5 mM tartrate buffer solution/10% sucrose solution (pH 4.0) • pH 5.0: 5 mM tartrate buffer solution/10% sucrose solution (pH 5.0)
(§1) The measurement conditions for HPLC are as follows.
• column: Acquity UPLC BEH C18, 1.7 um, 50×2.1 mm • column temperature: 40° C. • mobile phase: • A: water containing 0.1% trifluoroacetic acid • B: acetonitrile • A/B (min): • 80/20(0)→75/25(3)→0/100(3.5)→0/100(4)→80/20(4.01)→80/20(5) • flow rate: 0.8 mL/min • detection: ultraviolet visible detector, measurement wavelength 254 nm • injection: 3 μL

[2] = Evaluation of conversion rate to active form in buffer solution (Experimental Example 1); format: physicochemical
Method: For Examples 1 to 16 and Comparative Examples 1 to 14, the attrition rate of the test compound and the conversion rate of the test compound to Alvocidib in a buffer solution were calculated by the following method.
Examples 1 to 16 and Comparative Examples 1 to 14 were each left in buffer solutions adjusted to pH 5.0, 5.5, 6.0, 6.5, 7.0 and 7.4, respectively, at a concentration of 25 umol/L at 37° C. After 0, 0.5, 1, 2 and 3 hours, the residual rates of the compounds of Examples […] and the production rate of Alvocidib were determined by HPLC.
The buffer solutions used at each pH are as follows. • pH 5.0: 50 mM citrate buffer solution (pH 5.0) • pH 5.5: 50 mM citrate buffer solution (pH 5.5) • pH 6.0: 50 mM phosphate buffer solution (pH 6.0) • pH 6.5: 50 mM phosphate buffer solution (pH 6.5) • pH 7.0: 50 mM phosphate buffer solution (pH 7.0) • pH 7.4: 50 mM phosphate buffer solution (pH 7.4)
as §1

Structure (SMILES): CN1CC[C@H](c2c(OC(=O)N(C)CCN)cc(O)c3c(=O)cc(-c4ccccc4Cl)oc23)[C@H](O)C1 [Comparative Example 13, reference compound]
Stability / conversion to Alvocidib in solution formulation at pH 3 ([1]; pH 3, 5° C., up to 4 weeks): stable | Stability / conversion to Alvocidib in solution formulation at pH 4 ([1]; pH 4, 5° C., up to 4 weeks): gradually converted to Alvocidib | production rate of Alvocidib / converted to Alvocidib ([1]; solution formulation pH 5, 5° C., after 4 weeks): about 40% | Production rate of Alvocidib ([1]; pH3.0, 0 week): 0.1% | Residual rate ([1]; pH3.0, 0 week): 99.6% | Production rate of Alvocidib ([1]; pH3.0, 1 week): 0.2% | Residual rate ([1]; pH3.0, 1 week): 99.3% | Production rate of Alvocidib ([1]; pH3.0, 2 week): 0.3% | Residual rate ([1]; pH3.0, 2 week): 99.5% | Production rate of Alvocidib ([1]; pH3.0, 4 week): 0.6% | Residual rate ([1]; pH3.0, 4 week): 99.1% | Production rate of Alvocidib ([1]; pH4.0, 0 week): 0.2% | Residual rate ([1]; pH4.0, 0 week): 99.4% | Production rate of Alvocidib ([1]; pH4.0, 1 week): 1.2% | Residual rate ([1]; pH4.0, 1 week): 98.1% | Production rate of Alvocidib ([1]; pH4.0, 2 week): 2.2% | Residual rate ([1]; pH4.0, 2 week): 97.4% | Production rate of Alvocidib ([1]; pH4.0, 4 week): 4.8% | Residual rate ([1]; pH4.0, 4 week): 94.4% | Production rate of Alvocidib ([1]; pH5.0, 0 week): 1.4% | Residual rate ([1]; pH5.0, 0 week): 98.1% | Production rate of Alvocidib ([1]; pH5.0, 1 week): 13.7% | Residual rate ([1]; pH5.0, 1 week): 84.3% | Production rate of Alvocidib ([1]; pH5.0, 2 week): 25.3% | Residual rate ([1]; pH5.0, 2 week): 71.7% | Production rate of Alvocidib ([1]; pH5.0, 4 week): 39.4% | Residual rate ([1]; pH5.0, 4 week): 55.9% | Production rate of Alvocidib ([2]; pH5.0, 0 hr): 0.0% | Residual rate ([2]; pH5.0, 0 hr): 99.8% | Stability in buffer solution at pH 5 ([2]; pH 5, 37° C., up to 2 or 3 hours): unstable | Production rate of Alvocidib ([2]; pH5.0, 0.5 hr): 2.2% | Residual rate ([2]; pH5.0, 0.5 hr): 96.0% | Production rate of Alvocidib ([2]; pH5.0, 1 hr): 4.1% | Residual rate ([2]; pH5.0, 1 hr): 94.0% | Production rate of Alvocidib ([2]; pH5.0, 2 hr): 8.3% | Residual rate ([2]; pH5.0, 2 hr): 90.8% | Production rate of Alvocidib ([2]; pH5.0, 3 hr): 12.3% | Residual rate ([2]; pH5.0, 3 hr): 86.5% | Production rate of Alvocidib ([2]; pH5.5, 0 hr): 0.0% | Residual rate ([2]; pH5.5, 0 hr): 98.3% | Production rate of Alvocidib ([2]; pH5.5, 0.5 hr): 6.5% | Residual rate ([2]; pH5.5, 0.5 hr): 91.3% | Production rate of Alvocidib ([2]; pH5.5, 1 hr): 11.9% | Residual rate ([2]; pH5.5, 1 hr): 85.5% | Production rate of Alvocidib ([2]; pH5.5, 2 hr): 22.6% | Residual rate ([2]; pH5.5, 2 hr): 73.9% | Production rate of Alvocidib ([2]; pH5.5, 3 hr): 32.2% | Residual rate ([2]; pH5.5, 3 hr): 64.7% | Production rate of Alvocidib ([2]; pH6.0, 0 hr): 0.0% | Residual rate ([2]; pH6.0, 0 hr): 98.7% | Production rate of Alvocidib ([2]; pH6.0, 0.5 hr): 23.8% | Residual rate ([2]; pH6.0, 0.5 hr): 72.9% | Production rate of Alvocidib ([2]; pH6.0, 1 hr): 40.3% | Residual rate ([2]; pH6.0, 1 hr): 56.3% | Production rate of Alvocidib ([2]; pH6.0, 2 hr): 63.0% | Residual rate ([2]; pH6.0, 2 hr): 30.4% | Production rate of Alvocidib ([2]; pH6.0, 3 hr): 75.5% | Residual rate ([2]; pH6.0, 3 hr): 16.8% | Production rate of Alvocidib ([2]; pH6.5, 0 hr): 0.2% | Residual rate ([2]; pH6.5, 0 hr): 99.5% | Production rate of Alvocidib ([2]; pH6.5, 0.5 hr): 51.7% | Residual rate ([2]; pH6.5, 0.5 hr): 42.2% | Production rate of Alvocidib ([2]; pH6.5, 1 hr): 73.5% | Residual rate ([2]; pH6.5, 1 hr): 20.0% | Production rate of Alvocidib ([2]; pH6.5, 2 hr): 87.1% | Residual rate ([2]; pH6.5, 2 hr): 3.8% | Production rate of Alvocidib ([2]; pH6.5, 3 hr): 90.0% | Residual rate ([2]; pH6.5, 3 hr): 0.9% | Production rate of Alvocidib ([2]; pH7.0, 0 hr): 0.5% | Residual rate ([2]; pH7.0, 0 hr): 97.8% | Production rate of Alvocidib ([2]; pH7.0, 0.5 hr): 82.2% | Residual rate ([2]; pH7.0, 0.5 hr): 9.3% | Production rate of Alvocidib ([2]; pH7.0, 1 hr): 89.7% | Residual rate ([2]; pH7.0, 1 hr): 1.3% | Production rate of Alvocidib ([2]; pH7.0, 2 hr): 91.0% | Residual rate ([2]; pH7.0, 2 hr): 0.0% | Production rate of Alvocidib ([2]; pH7.0, 3 hr): 91.0% | Residual rate ([2]; pH7.0, 3 hr): 0.0% | Production rate of Alvocidib ([2]; pH7.4, 0 hr): 1.3% | Residual rate ([2]; pH7.4, 0 hr): 97.2% | Production rate of Alvocidib ([2]; pH7.4, 0.5 hr): 90.5% | Residual rate ([2]; pH7.4, 0.5 hr): 0.8% | Production rate of Alvocidib ([2]; pH7.4, 1 hr): 91.2% | Residual rate ([2]; pH7.4, 1 hr): 0.0% | Production rate of Alvocidib ([2]; pH7.4, 2 hr): 91.4% | Residual rate ([2]; pH7.4, 2 hr): 0.0% | Production rate of Alvocidib ([2]; pH7.4, 3 hr): 92.1% | Residual rate ([2]; pH7.4, 3 hr): 0.0%

Production rate of Alvocidib ([2]; pH7.4, 0 hr): 1.0% | Residual rate ([2]; pH7.4, 0 hr): 92.9% | Conversion to Alvocidib at pH 7.4 ([2]; pH 7.4, 37° C., up to 3 hours): slowly converted to Alvocidib | Production rate of Alvocidib ([2]; pH7.4, 0.5 hr): 1.2% | Residual rate ([2]; pH7.4, 0.5 hr): 92.3% | Production rate of Alvocidib ([2]; pH7.4, 1 hr): 1.3% | Residual rate ([2]; pH7.4, 1 hr): 91.8% | Production rate of Alvocidib ([2]; pH7.4, 2 hr): 1.5% | Residual rate ([2]; pH7.4, 2 hr): 91.3%
Structure (SMILES): CCCCCCC(=O)O[C@@H]1CN(C)CC[C@@H]1c1c(O)cc(O)c2c(=O)cc(-c3ccccc3Cl)oc12 [Comparative Example 11, reference compound]
